For seven compounds, viability results are on record in PubChem BioAssay AID588370 (NMMLSC, 2011).

Structures are written as SMILES. Active and inactive are the calls of the source.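 How the source made its calls: active means cytotoxic compounds, leaving cell viability under 88%; inactive means viability at or above 88%.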

The subject of this test is U937 viability, trypan blue exclusion, 24 h. Nature of the test: cytotoxicity in U937 cells, cytotoxicity control for VLA-4 allosteric modulator project, cell-based, trypan blue (AID 588370). To be noted: at 10 µM; stronger effect = lower value.

A word on the viability: it is the share of living cells, or the viability signal relative to a control. For `c1ccc2c(-c3ccc(OCCN4CCCC4)cc3)c(-c3ccsc3)sc2c1`, the viability was 93% (inactive). The result for `c1ccc2c(-c3ccc(OCCN4CCCCC4)cc3)c(-c3ccsc3)sc2c1` reads 96% (inactive); that for `COc1ccc(-c2sc3ccccc3c2-c2ccc(OCCN(C)C)cc2)cc1`, 96% (inactive); that for `COc1cccc(-c2sc3ccccc3c2-c2ccc(OCCN(C)C)cc2)c1`, 97% (inactive). As for `c1ccc(-c2sc3ccccc3c2-c2ccc(OCCN3CCCC3)cc2)cc1`, the viability was 97% (inactive). The result for `COc1cccc(-c2sc3ccccc3c2-c2ccc(OCCN3CCCC3)cc2)c1` reads 84%; that for `CN(C)CCOc1ccc(-c2c(-c3ccccc3)sc3ccccc23)cc1`, 97% (inactive).
